# pIC50: −log10 of the molar value.
# What was measured:
# Activin receptor type-1 [1] = target: T1, Activin receptor type-1 (Homo sapiens, UniProt Q04771); test: Inhibition of human ALK2 using casein as substrate in presence of [gamma-33P]-ATP by radiometric hotspot assay
# T1 sequence (Q04771 whole entry): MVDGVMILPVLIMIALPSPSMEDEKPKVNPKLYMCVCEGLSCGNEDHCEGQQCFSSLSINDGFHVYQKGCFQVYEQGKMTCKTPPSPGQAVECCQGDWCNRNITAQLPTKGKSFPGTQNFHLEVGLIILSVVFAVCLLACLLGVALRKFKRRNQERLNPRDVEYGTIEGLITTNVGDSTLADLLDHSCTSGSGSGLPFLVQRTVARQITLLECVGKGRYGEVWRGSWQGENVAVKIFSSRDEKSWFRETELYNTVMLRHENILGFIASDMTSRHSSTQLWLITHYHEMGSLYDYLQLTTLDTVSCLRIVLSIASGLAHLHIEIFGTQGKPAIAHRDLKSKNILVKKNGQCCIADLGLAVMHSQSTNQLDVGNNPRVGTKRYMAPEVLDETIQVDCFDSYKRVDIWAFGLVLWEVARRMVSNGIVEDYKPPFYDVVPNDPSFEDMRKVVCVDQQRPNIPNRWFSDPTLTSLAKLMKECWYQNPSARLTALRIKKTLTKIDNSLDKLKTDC
# TGF-beta receptor type-1 [2] = target: T2, TGF-beta receptor type-1 (Homo sapiens, UniProt P36897); test: Inhibition of human ALK5 using casein as substrate in presence of [gamma-33P]-ATP by radiometric hotspot assay; format: ADME
# T2 sequence (P36897 whole entry): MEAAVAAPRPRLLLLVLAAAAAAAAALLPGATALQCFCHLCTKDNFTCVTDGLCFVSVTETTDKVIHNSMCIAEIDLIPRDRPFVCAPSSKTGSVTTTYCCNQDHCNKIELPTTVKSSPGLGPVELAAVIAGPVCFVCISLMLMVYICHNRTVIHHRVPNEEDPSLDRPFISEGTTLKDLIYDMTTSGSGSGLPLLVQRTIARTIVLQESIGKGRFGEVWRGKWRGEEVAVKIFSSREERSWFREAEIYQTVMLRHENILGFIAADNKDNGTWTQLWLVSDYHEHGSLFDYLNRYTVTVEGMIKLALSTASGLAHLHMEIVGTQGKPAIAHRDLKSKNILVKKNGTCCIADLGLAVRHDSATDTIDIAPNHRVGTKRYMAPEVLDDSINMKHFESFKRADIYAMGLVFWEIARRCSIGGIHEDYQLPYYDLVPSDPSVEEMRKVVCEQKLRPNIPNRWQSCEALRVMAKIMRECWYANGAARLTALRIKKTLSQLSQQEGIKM
# Activin receptor type-1 [3] = target: T1, Activin receptor type-1; test: Competitive displacement of PBI-6908 from nanoluciferase-fused ALK2 (unknown origin) expressed in HEK293 cells incubated for 2 hrs by NanoBRET NanoGlo substrate based NanoBRET assay; format: cell-based
# TGF-beta receptor type-1 [4] = target: T2, TGF-beta receptor type-1; test: Inhibition of recombinant human ALK5 expressed in HEK293 cells transfected with CAGA-luciferase and Renilla luciferase reporter after 24 hrs by dual luciferase reporter assay; format: cell-based
# [5] = target: Voltage-gated inwardly rectifying potassium channel KCNH2 (Homo sapiens, UniProt Q12809); test: Inhibition of human ERG expressed in HEK293 cells after 5 mins by IonWorks barracuda patch clamp method; format: cell-based
# Voltage-gated inwardly rectifying potassium channel KCNH2, sequence (Q12809 whole entry): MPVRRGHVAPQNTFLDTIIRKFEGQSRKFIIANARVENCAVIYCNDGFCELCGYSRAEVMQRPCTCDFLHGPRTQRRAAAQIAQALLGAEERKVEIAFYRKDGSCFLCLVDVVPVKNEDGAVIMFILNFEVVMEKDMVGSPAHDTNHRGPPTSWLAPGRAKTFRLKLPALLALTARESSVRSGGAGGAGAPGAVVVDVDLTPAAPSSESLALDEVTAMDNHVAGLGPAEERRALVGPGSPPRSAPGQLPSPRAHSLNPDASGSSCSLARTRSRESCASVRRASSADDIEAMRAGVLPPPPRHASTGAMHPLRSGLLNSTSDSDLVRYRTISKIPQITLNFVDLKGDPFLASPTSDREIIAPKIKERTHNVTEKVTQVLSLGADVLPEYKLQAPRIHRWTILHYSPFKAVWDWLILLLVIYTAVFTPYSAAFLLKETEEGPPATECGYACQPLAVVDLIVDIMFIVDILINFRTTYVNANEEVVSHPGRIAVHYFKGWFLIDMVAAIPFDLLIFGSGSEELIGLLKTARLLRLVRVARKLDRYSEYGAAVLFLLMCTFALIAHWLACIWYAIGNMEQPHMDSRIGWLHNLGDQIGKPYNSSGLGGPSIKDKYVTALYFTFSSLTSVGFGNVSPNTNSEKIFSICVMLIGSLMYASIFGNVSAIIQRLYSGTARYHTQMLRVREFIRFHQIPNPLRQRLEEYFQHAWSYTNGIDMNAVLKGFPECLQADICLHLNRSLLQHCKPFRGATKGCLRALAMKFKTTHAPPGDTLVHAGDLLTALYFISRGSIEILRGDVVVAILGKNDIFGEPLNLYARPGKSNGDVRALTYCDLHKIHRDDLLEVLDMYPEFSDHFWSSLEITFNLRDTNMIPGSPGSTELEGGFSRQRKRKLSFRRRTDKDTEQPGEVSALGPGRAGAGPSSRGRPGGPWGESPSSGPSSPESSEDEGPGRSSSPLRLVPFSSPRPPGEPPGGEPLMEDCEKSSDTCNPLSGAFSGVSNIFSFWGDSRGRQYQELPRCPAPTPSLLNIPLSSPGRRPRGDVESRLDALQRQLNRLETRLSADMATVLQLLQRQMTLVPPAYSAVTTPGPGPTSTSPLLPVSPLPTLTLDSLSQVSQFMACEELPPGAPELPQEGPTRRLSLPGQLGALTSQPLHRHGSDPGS
# [6] = Selectivity ratio of IC50 for human ALK4 to IC50 for human ALK2; format: ADME
# Activin receptor type-1B = target: T3, Activin receptor type-1B (Homo sapiens, UniProt P36896); test: Inhibition of human ALK4 using casein as substrate in presence of [gamma-33P]-ATP by radiometric hotspot assay; format: ADME
# T3 sequence (P36896 whole entry): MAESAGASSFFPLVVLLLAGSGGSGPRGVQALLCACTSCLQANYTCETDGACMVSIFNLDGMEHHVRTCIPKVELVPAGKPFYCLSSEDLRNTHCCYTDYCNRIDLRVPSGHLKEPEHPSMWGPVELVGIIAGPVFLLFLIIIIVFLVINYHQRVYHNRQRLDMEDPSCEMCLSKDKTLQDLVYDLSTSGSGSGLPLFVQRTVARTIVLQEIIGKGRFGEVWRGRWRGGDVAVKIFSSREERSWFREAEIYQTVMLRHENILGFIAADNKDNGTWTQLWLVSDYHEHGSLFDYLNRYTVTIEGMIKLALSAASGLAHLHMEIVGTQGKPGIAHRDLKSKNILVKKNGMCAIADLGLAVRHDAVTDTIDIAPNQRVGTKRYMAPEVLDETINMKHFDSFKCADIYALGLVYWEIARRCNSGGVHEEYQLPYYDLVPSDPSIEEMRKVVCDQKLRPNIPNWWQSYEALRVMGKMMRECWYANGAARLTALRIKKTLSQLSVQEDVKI
# [7] = Stability in CD1 mouse liver microsomes assessed as compound remaining at 1 uM incubated for 60 mins by LC/MS analysis; format: ADME, Microsome; details: read-out: Stability
# [8] = Stability in human liver microsomes assessed as compound remaining at 1 uM incubated for 60 mins by LC/MS analysis; format: ADME, Microsome; details: read-out: Stability
# [9] = Apparent permeability across apical to basolateral side in human Caco2 cells at 5 uM after 120 mins by LC-MS/MS analysis; details: Caco-2
# [10] = Apparent permeability across basolateral to apical side in human Caco2 cells at 5 uM after 120 mins by LC-MS/MS analysis; format: ADME, cell-based; details: Caco-2
# [11] = Efflux ratio of apparent permeability across basolateral to apical over apical to basolateral side in human Caco2 cells at 5 uM incubated for 2 hrs by LC/MS/MS analysis; details: Caco-2
# [12] = Half life in CD1 mouse liver microsomes at 1 uM incubated for 60 mins by LC/MS analysis; format: ADME, Microsome
# [13] = Half life in human liver microsomes at 1 uM incubated for 60 mins by LC/MS analysis; format: ADME, Microsome
# [14] = Clearance in CB17 SCID mouse at 2 mg/kg, iv after 0.25 to 24 hrs by LC/MS/MS method; format: ADME, organism-based; details: in vivo
# [15] = Volume of distribution at steady state in CB17 SCID mouse at 2 mg/kg, iv after 0.25 to 24 hrs by LC/MS/MS method; format: ADME, organism-based; details: in vivo, read-out: Vdss
# [16] = Half life in CB17 SCID mouse at 10 mg/kg, po after 0.25 to 24 hrs by LC/MS/MS method; format: ADME, organism-based; details: in vivo
# [17] = Cmax in CB17 SCID mouse at 10 mg/kg, po after 0.25 to 24 hrs by LC/MS/MS method; format: ADME, organism-based; parameters: dose 10 mg/kg, route oral; details: in vivo
# [18] = AUCinfinity in CB17 SCID mouse at 10 mg/kg, po after 0.25 to 24 hrs by LC/MS/MS method; format: ADME, organism-based; parameters: dose 10 mg/kg, time infinity, route oral; details: in vivo
# [19] = Oral bioavailability in CB17 SCID mouse at 10 mg/kg after 0.25 to 24 hrs by LC/MS/MS method; format: ADME, organism-based; details: in vivo
# [20] = Toxicity in CB17 SCID mouse assessed as induction of adverse effect at 2 mg/kg, iv; format: organism-based; details: in vivo
# [21] = Toxicity in CB17 SCID mouse assessed as induction of adverse effect at 10 mg/kg, po; format: organism-based; details: in vivo
Compound,pIC50 (Activin receptor type-1 [1]),pIC50 (TGF-beta receptor type-1 [2]),pIC50 (Activin receptor type-1 [3]),pIC50 (TGF-beta receptor type-1 [4]),pIC50 [5],Ratio IC50 [6],pIC50 (Activin receptor type-1B),also measured
COc1cc(-c2cncc(-c3ccc(C4CCNCC4)cc3)c2C)cc(OC)c1OC,8.05,5.76,7.27,5.47,–,–,–,–
COc1cc(-c2cncc(-c3ccc(N4CCN(C(C)C)CC4)cc3)c2C)cc(OC)c1OC,8.15,5.65,7.14,5.74,5.51,–,–,–
COc1cc(-c2cncc(-c3ccc(N4CCNCC4)cc3)c2N)cc(OC)c1OC,6.34,< 5.30,6.59,< 5.30,–,–,–,–
COc1cc(-c2cncc(-c3ccc(N4CCNCC4)cc3)c2F)cc(OC)c1OC,7.82,6.06,7.49,5.66,–,42,6.20,–
COc1cc(-c2cncc(-c3ccc(N4CCNCC4)cc3)c2C#N)cc(OC)c1OC,8.52,6.14,7.82,6.17,5.22,86,6.59,–
COc1cc(-c2cncc(-c3ccc(OC4CCNCC4)cc3)c2C)cc(OC)c1OC,8.22,5.54,7.51,5.72,5.09,227,5.87,"remaining at 1 h, 1 µM [7]: 39.3%; remaining at 1 h, 1 µM [8]: 62.1%; Papp A→B at 2 h, 5 µM [9]: 4.1 ×10⁻⁶ cm/s; Papp B→A at 2 h, 5 µM [10]: 9.4 ×10⁻⁶ cm/s; efflux ratio at 2 h, 5 µM [11]: 2.3; half-life at 1 µM [12]: > 1 h; half-life at 1 µM [13]: > 1 h; clearance [14]: 6 mL/min/kg; Vd [15]: 2.23 L/kg; half-life [16]: 7.7 h; Cmax [17]: 4.71 µM; AUC(0-inf) [18]: 65.8 µM·h; bioavailability [19]: 96%; Activity [20]: Non-Toxic; Activity [21]: Non-Toxic"
COc1cc(-c2cncc(-c3ccc(N4CCCNCC4)cc3)c2C)cc(OC)c1OC,7.89,5.52,7.08,5.34,–,–,–,–
COc1cc(-c2cncc(-c3ccc(N4CCNCC4)cc3)c2C#N)cc(OC)c1F,7.96,6.31,7.31,5.82,–,–,–,–
COc1cc(-c2cncc(-c3ccc(N4CCNCC4)cc3)c2C2CC2)cc(OC)c1OC,7.38,5.33,6.80,< 5.30,–,–,–,–
COc1cc(-c2cncc(-c3ccc(N4CCN(S(C)(=O)=O)CC4)cc3)c2C)cc(OC)c1OC,7.54,5.70,7.23,5.19,< 4.30,39,5.95,"remaining at 1 h, 1 µM [7]: 100%; remaining at 1 h, 1 µM [8]: 83.6%; Papp A→B at 2 h, 5 µM [9]: 34.5 ×10⁻⁶ cm/s; Papp B→A at 2 h, 5 µM [10]: 33.8 ×10⁻⁶ cm/s; efflux ratio at 2 h, 5 µM [11]: 1; half-life at 1 µM [12]: > 1 h; half-life at 1 µM [13]: > 1 h; clearance [14]: 7.9 mL/min/kg; Vd [15]: 0.48 L/kg; half-life [16]: 0.8 h; Cmax [17]: 1.43 µM; AUC(0-inf) [18]: 2.97 µM·h; bioavailability [19]: 7%; Activity [20]: Non-Toxic; Activity [21]: Non-Toxic"
CCc1c(-c2ccc(N3CCNCC3)cc2)cncc1-c1cc(OC)c(OC)c(OC)c1,6.74,< 5.30,6.23,< 5.30,–,–,–,–
COc1cc(-c2cncc(-c3ccc(OC4CCN(C)CC4)cc3)c2C)cc(OC)c1OC,8.22,5.78,7.17,5.68,–,–,–,–
COc1cc(-c2cncc(-c3ccc(N4CCN(CCF)CC4)cc3)c2C)cc(OC)c1OC,7.77,5.49,6.75,< 5.30,–,–,–,–
